Earlier results as cited in patent publication US20220288273A1, “OSTEOINDUCTIVE MODIFIED GELATIN HYDROGELS AND METHODS OF MAKING AND USING THE SAME” (THE REGENTS OF THE UNIVERSITY OF CALIFORNIA, priority 2019, published 2022).

Row | Compound | water solubility
1 | Cc1cc(C)c(C(=O)P(=O)([O-])c2ccccc2)c(C)c1.[Li+] [LAP, Lithium phenyl-2,4,6-trimethylbenzoylphosphinate] | high water solubility
2 | CC(C)(O)C(=O)c1ccc(OCCO)cc1 [Irgacure-2959, 2-Hydroxy-4′-(2-hydroxyethoxy)-2-methylpropiophenone] | low water solubility
